The source made the active and inactive calls. The rule behind the calls is not given here.
How the values were obtained:
[1] = biological target: T1, Polypeptide N-acetylgalactosaminyltransferase 3 (Homo sapiens, UniProt Q14435); experiment: Inhibition of catalytic activity of ppGalNAcT3 (unknown origin) using EA2 peptide as substrate incubated for 30 mins by HPLC-based enzyme assay
T1 sequence (Q14435 whole entry): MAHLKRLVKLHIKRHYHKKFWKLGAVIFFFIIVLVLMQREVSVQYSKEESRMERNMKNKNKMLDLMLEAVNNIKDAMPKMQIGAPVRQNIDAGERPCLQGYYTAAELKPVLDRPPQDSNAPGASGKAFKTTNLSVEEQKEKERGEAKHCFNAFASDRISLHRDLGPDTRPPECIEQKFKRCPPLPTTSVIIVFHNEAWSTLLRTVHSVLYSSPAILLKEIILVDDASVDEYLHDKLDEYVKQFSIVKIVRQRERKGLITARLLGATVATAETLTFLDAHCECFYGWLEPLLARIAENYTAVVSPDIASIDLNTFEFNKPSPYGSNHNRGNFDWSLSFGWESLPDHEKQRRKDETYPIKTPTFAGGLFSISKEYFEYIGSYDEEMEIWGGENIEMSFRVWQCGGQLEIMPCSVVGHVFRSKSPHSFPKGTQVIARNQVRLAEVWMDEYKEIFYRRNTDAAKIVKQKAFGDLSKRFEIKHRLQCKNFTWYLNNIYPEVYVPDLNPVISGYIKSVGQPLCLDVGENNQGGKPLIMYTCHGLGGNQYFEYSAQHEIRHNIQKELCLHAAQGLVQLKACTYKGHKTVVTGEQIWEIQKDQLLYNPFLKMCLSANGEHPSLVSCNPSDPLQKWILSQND

[2] = biological target: T2, UDP-N-acetylglucosamine--peptide N-acetylglucosaminyltransferase 110 kDa subunit (Homo sapiens, UniProt O15294); experiment: Inhibition of catalytic activity of OGT (unknown origin) using EA2 peptide as substrate incubated for 30 mins by HPLC-based enzyme assay
T2 sequence (O15294 whole entry): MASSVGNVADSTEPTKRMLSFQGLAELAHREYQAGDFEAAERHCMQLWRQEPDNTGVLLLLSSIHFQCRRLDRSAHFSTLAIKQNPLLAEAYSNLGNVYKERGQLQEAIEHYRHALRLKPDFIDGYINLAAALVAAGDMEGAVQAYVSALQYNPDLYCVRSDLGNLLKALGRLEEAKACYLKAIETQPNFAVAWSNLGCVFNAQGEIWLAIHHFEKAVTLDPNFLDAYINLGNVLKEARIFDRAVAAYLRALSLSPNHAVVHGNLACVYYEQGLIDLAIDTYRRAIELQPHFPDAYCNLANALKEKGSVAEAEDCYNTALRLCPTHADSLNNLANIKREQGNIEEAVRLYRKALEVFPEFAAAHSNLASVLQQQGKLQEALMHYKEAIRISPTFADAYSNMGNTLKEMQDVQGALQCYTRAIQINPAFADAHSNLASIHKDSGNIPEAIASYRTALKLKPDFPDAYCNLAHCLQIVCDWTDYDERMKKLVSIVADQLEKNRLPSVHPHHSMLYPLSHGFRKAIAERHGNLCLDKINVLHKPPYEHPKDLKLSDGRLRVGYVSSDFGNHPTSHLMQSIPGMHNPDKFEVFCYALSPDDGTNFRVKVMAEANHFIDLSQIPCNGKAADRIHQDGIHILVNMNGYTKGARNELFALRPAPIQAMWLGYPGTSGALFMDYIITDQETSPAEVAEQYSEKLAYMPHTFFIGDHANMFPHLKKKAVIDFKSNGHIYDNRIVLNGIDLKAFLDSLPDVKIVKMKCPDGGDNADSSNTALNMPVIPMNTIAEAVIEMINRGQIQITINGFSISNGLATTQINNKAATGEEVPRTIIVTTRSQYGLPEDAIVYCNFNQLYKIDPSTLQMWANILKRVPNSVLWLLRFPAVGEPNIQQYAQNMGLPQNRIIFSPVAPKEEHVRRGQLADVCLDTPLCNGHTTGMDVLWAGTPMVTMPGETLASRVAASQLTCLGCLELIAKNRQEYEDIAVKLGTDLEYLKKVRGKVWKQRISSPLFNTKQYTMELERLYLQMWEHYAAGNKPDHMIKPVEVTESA

[3] = biological target: T3, Polypeptide N-acetylgalactosaminyltransferase 2 (Homo sapiens, UniProt Q10471); experiment: Inhibition of catalytic activity of human recombinant FLAG-tagged ppGalNAcT2 using Muc2 peptide as substrate incubated for 30 mins by HPLC-based enzyme assay
T3 sequence (Q10471 whole entry): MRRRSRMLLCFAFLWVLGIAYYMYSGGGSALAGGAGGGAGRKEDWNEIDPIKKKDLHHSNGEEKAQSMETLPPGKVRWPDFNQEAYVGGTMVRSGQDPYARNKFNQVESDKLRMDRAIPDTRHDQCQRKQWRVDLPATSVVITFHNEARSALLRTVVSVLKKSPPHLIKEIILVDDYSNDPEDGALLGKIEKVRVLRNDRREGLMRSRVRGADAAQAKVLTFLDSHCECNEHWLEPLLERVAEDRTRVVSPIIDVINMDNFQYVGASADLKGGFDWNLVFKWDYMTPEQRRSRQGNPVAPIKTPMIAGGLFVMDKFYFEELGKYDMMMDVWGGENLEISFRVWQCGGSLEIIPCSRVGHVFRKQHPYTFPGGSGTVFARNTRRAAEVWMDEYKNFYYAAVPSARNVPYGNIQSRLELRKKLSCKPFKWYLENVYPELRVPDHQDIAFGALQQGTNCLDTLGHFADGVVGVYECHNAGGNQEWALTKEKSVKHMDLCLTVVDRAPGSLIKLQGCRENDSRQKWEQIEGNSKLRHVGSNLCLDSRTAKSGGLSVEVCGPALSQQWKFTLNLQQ

HT-29 [4] = experiment: Effect on N-glycans in human HT-29 cells assessed as change in ConA expression at 40 uM incubated for 48 hrs by Western blot analysis; assay type: ADME, cell-based; details: ht-29, 48 h
HT-29 [5] = experiment: Effect on ppGalNAcT5 expression level in human HT-29 cells at 40 uM incubated for 48 hrs by Q-PCR analysis; assay type: ADME, cell-based; details: ht-29, 48 h
HT-29 [6] = experiment: Effect on ppGalNAcT6 expression level in human HT-29 cells at 40 uM incubated for 48 hrs by Q-PCR analysis; assay type: ADME, cell-based; details: ht-29, 48 h
HT-29 [7] = experiment: Effect on ppGalNAcT13 expression level in human HT-29 cells at 40 uM incubated for 48 hrs by Q-PCR analysis; assay type: ADME, cell-based; details: ht-29, 48 h
[8] = biological target: T3, Polypeptide N-acetylgalactosaminyltransferase 2; experiment: Inhibition of ppGalNAcT2 in human RKO cells assessed as reduction in O-GalNAc glycosylation by measuring VVA lectin expression at 40 uM incubated for 48 hrs by Western blot analysis; assay type: cell-based
HCT-116 = experiment: Cytotoxicity against human HCT116 cells at 40 uM incubated for 48 hrs by CCK-8 assay; assay type: cell-based; details: hct-116, 48 h
HT-29 [9] = experiment: Antimigratory activity in human HT-29 cells at 40 uM incubated for 48 hrs by crystal violet staining based method; assay type: functional, cell-based
RKO = experiment: Antimigratory activity in human RKO cells at 40 uM incubated for 48 hrs by crystal violet staining based method; assay type: functional, cell-based

IC50 [1]: 1.61 µM | IC50 [2]: > 100 µM | IC50 [3]: 1.14 µM | inhibition [8]: Active
SMILES: O=c1oc2c(O)c(O)ccc2c2cc(O)c(O)cc12
Activity (HT-29 [4]): Non-Toxic | Activity (HT-29 [5]): Non-Toxic | Activity (HT-29 [6]): Non-Toxic | Activity (HT-29 [7]): Non-Toxic | Activity (HCT-116): Non-Toxic | Activity (HT-29 [9]): Active | Activity (RKO): Active
